# In patent US6699681B2, “Endothelin converting enzymes and the amyloid β peptide” (Mayo Foundation for Medical Education and Research, priority 2000, dated 2004):
# “Also recorded” adds a separate entry of the source.
# Key:
# CHO cells = experiment: Aβ in conditioned medium of CHO cells (lack ECE activity) treated with phosphoramidon; type: cell-based, hamster; conditions: non-transfected CHO cells; high concentrations of phosphoramidon
# Protocol: (§1) Human and guinea pig Aβ40 or Aβ42 was measured in plasma by sandwich ELISA as previously described (Suzuki et al., 1994, Science, 264:1336-1340) using the BAN-50/BA-27 or BAN-50/BC-05 antibody systems, respectively (Takeda; Japan). Hamster Aβ40- or Aβ42-derived from CHO cells was measured using the BNT-77/BA-27 or BNT-77/BC-05 antibody systems, respectively. Aβ concentration in samples was determined by comparison to synthetic Aβ40 or Aβ42 standards (Bachem, Switzerland). Data was obtained from triplicate wells.
# (§2) In particular, the sandwich ELISA used herein was performed as follows: 96-well microtiter plates were coated overnight at 4° C. with 100 μl of a 5 μg/ml dilution of primary antibody in sodium carbonate coating buffer (SCCB; 0.1 M Na2CO3, pH 9.6). […] Plates were read at 450 nm in a SpectraMax Plus spectrophotometer (Molecular Devices; Sunnyvale, Calif.) and analyzed by SOFTmax® PRO software. Aβ40 or Aβ42 were quantitated by comparison with the values obtained for each synthetic Aβ standard from the same plate.
# (§3) Cells were passaged into 6-well plates one day prior to treatment and grown to confluence. […] After treatment, the culture medium was harvested, spun at 14,000 xg, and the supernatant analyzed for Aβ40 or Aβ42 using sandwich ELISA and for secreted APP using Western blot. […]
# [1] = system: ECE-transfected CHO cells; experiment: Removal of synthetic Aβ40 spiked into culture medium of ECE-transfected CHO cells; type: cell-based, hamster
# Protocol: as §1, §2
# To determine whether extracellular removal of Aβ accounted, at least in part, for the dramatic decrease in extracellular Aβ concentration in ECE-transfected cell lines, synthetic Aβ40 was spiked into the culture medium in the presence or absence of phosphoramidon and the amount of unhydrolyzed Aβ was determined at 6 or 24 hrs by sandwich ELISA. […]
# [2] = system: ECE-transfected CHO cells; experiment: Aβ concentration in conditioned medium of ECE-1a- or ECE-1b-transfected CHO cells; type: cell-based, hamster
# Protocol: as §1
# In particular, the sandwich ELISA used herein was performed as follows: 96-well microtiter plates were coated overnight at 4° C. with 100 μl of a 5 μg/ml dilution of primary antibody in sodium carbonate coating buffer (SCCB; 0.1 M Na2CO3, pH 9.6). Plates were blocked overnight at 4° C. with 300 μl of BLOCKAGE Solution (PBS+1.0% BLOCKAGE (Snow Brand Milk Products, Japan), 0.05% NaN3, pH 7.4). Samples for analysis and synthetic Aβ standards (Bachem, Switzerland) were diluted in buffer EC (0.02 M NaH2PO4, 0.002 M EDTA, 0.4 M NaCl, 0.2% BSA, 0.05% CHAPS, 0.04% BLOCKAGE, 0.05% NaN3, pH 7.0) and allowed to incubate on the plates overnight at 4° C. Plates were washed twice with PBS (8 mM Na2HPO4, 1.5 mM KH2PO4, 139 mM NaCl, 2.7 mM KCl, pH 7.4) and 100 μl of secondary antibody directly coupled to HRP (EZ-LINK™ Plus Activated Peroxidase kit (contents of kit: peroxidase, 5 M sodium cyanoborohydride solution (NaBH3CN), quenching buffer (3 M ethanolamine, pH 9.0), BupH™ phosphate buffered saline, Buph™ carbonate-bicarbonate buffer), according to manufacturers directions; Pierce Chemical Co., Rockford, Ill.) was allowed to bind either 4 hrs at room temperature or overnight at 4° C. Plates were then washed twice with PBS containing 0.05% Tween 20 followed by two additional washes in PBS. […] Plates were read at 450 nm in a SpectraMax Plus spectrophotometer (Molecular Devices; Sunnyvale, Calif.) and analyzed by SOFTmax® PRO software. Aβ40 or Aβ42 were quantitated by comparison with the values obtained for each synthetic Aβ standard from the same plate. […]
# HUVEC cells = experiment: Aβ accumulation in HUVEC cells treated with phosphoramidon; type: cell-based, human; conditions: high doses of phosphoramidon
# Protocol: as §1, §2, §3
smiles,measurement,setting,value
CC(C)C[C@H](NP(=O)(O)O[C@@H]1O[C@@H](C)[C@H](O)[C@@H](O)[C@H]1O)C(=O)N[C@@H](Cc1c[nH]c2ccccc12)C(=O)O [phosphoramidon],concentration of Aβ in the conditioned medium,CHO cells,did not affect; also recorded: unaffected
same,extracellular concentration of synthetic Aβ,"[1]; 6 hr incubation, ECE-transfected and untransfected CHO cells, spiked synthetic Aβ40",not affected
same,ECE-1a-induced increase in Aβ removal,"[1]; 24 hr, ECE-1a-transfected CHO cells treated with phosphoramidon",completely attenuated
same,reversal of the reduction in Aβ concentration in ECE-transfected cells,[2]; ECE-transfected CHO cells treated with phosphoramidon,completely reversed
same,phosphoramidon-induced accumulation of endogenous Aβ,"[2]; parallel cultures of ECE-1a-transfected cells without synthetic Aβ, 24 hr",greater than 600%
same,increase in secretion of endogenous Aβ,"[2]; phosphoramidon-treated ECE-transfected CHO cells, 6 hr",1.5- to 2 fold
same,Aβ accumulation,HUVEC cells,virtually undetectable levels of Aβ accumulation unless treated with high doses of phosphoramidon
